Laboratory results reported in patent publication US11266717B2, “Diagnosis, prevention, and/or treatment of autoimmune diseases” (priority 2016, dated 2022).
Non-standard residues stand in square brackets, D forms with d. Residues, ends and D or L forms follow the SMILES beside them. *: point of attachment. Dolaproine = CO[C@@H]([C@@H]1CCCN1)[C@@H](C)C(=O)O; Dil = CC[C@H](C)[C@H](NC)[C@@H](CC(=O)O)OC; X1 = C[C@@H](N*)[C@@H](O)c1ccccc1; NMeV = CN[C@H](C(=O)O)C(C)C

Columns and labels:
[1] = tested on: anti-PLA2R autoantibodies; assay: Western blot of PLA2R-epitope proteins probed with patient serum containing anti-PLA2R autoantibodies; type: binding, human; settings: SDS-PAGE under non-reducing condition
From the text: (§1) The construct was then expressed in the HEK293 cells and the epitope protein was purified using nickel and gel filtration columns followed with TEV cleavage to remove the His-tag. The protein was then coupled with a fluorescent agent (eg. FITC) or a cytotoxic reagent (eg. Monomethyl auristatin E (MMAE)).
In a separate experiment (FIG. 23; bottom right), equal amount of epitope, FITC conjugated epitope and MMAE conjugated epitope proteins were resolved on a SDS-PAGE under the non-reducing condition, transferred to a membrane, and probed by a patient serum containing anti-PLA2R autoantibodies. The unconjugated and the conjugated PLA2R-epitope proteins were resolved on a 4-20% SDS-PAGE under the non-reducing condition and probed with a patient serum containing anti-PLA2R autoantibodies (FIG. 23, bottom right).
as §1, with “(MMAE)) (FIG. 23).” for “(MMAE)).”

[2] = tested on: Dsg1 and Dsg3-epitope specific memory B cells isolated from mucocutaneous PV patients; assay: Elimination of Dsg1 and Dsg3-epitope specific memory B cells: 24 h preincubation, then Dsg1 and Dsg3-epitope-FITC staining; type: cell-based, human; settings: preincubation 24 h; then Dsg1 and Dsg3-epitope-FITC 1 h at 4° C.; FIG. 30
Protocol: (§2) In some embodiments, the efficacy of an EDC may be tested in vitro using patient samples prior to administering the EDC to patients. For example, the efficacy of an EDC is tested on isolated B cells from patient peripheral blood mononuclear cells (PBMCs) (FIG. 25; Example 6, and FIG. 30; Example 9). An EDC comprising a fluorophore (e.g., FITC) is used detect the presence of autoantibody-producing B cells in patient samples (left panels in FIG. 25 (MN patient samples) and FIG. 30 (Pemphigus vulgaris patient samples) prior to exposing the samples to an EDC comprising a cytotoxic drug. The patient samples are then treated with an EDC comprising a cytotoxic drug (e.g., MMAE). The EDC comprising the fluorophore is then used determine the efficacy of the EDC comprising a cytotoxic drug of autoantibody-producing B cells in patient samples (middle panels in FIG. 25 (MN patient samples) and FIG. 30 (Pemphigus vulgaris patient samples)).
The efficacy of the Dsg1 and Dsg3 epitope conjugated to MMAE to eliminate Dsg1 and Dsg3-epitope specific memory B cells, respectively, isolated from the mucocutaneous PV patients was assessed. Total B cells isolated from patient peripheral blood were cultured overnight in RPMI medium and then split equally into two wells on a 12 well cell culture plate (2 ml/per well). […]

[3] = tested on: PLA2R-epitope specific memory B cells isolated from PMN patients; assay: Elimination of PLA2R-epitope specific memory B cells: 24 h preincubation, then PLA2R-epitope-FITC staining; type: cell-based, human; settings: preincubation 24 h; then PLA2R-epitope-FITC 1 h at 4° C.; FIG. 25
Protocol: as §2
The efficacy of the PLA2R-epitope-MMAE on eliminating the PLA2R-epitope specific memory B cells isolated from PMN patients was assessed. MMAE is a potent cytotoxic agent that blocks tubulin polymerization causing cell death. MMAE has been used to develop an antibody-drug conjugate, Brentuximab vedotin (trade name Adcetris) for lymphoma treatment, and was approved by FDA in 2011. […]

Compound | reaction/binding with anti-PLA2R autoantibodies (Western blot) [1] | reaction/binding with anti-PLA2R autoantibodies (Western blot) ([1]; listed as modified PLA2R-epitope) | reaction/binding with anti-PLA2R autoantibodies (Western blot) ([1]; listed as unconjugated PLA2R-epitope) | staining of B cells with Dsg1 and Dsg3-epitope-FITC after preincubation (elimination of Dsg1 and Dsg3-epitope specific memory B cells) [2] | staining of B cells with PLA2R-epitope-FITC after preincubation (elimination of PLA2R-epitope specific memory B cells) [3]
PLA2R-epitope: PLA2R CysR, FnII and CTLD1 domains with free cysteine engineered into the C-terminal tail, expressed in HEK293 cells, about 37 kDa | strongly reacted | strongly reacted | strongly | – | –
CC[C@H](C)[C@@H]([C@@H](CC(=O)N1CCC[C@H]1[C@H](OC)[C@@H](C)C(=O)N[C@H](C)[C@@H](O)c1ccccc1)OC)N(C)C(=O)[C@@H](NC(=O)[C@@H](NC)C(C)C)C(C)C [MMAE, Monomethyl auristatin E, reference compound] (H-[NMeV]V[Dil][Dolaproine]-X1) | – | – | – | a number of B cells being stained | a number of B cells being stained
